# Measured values from ChEMBL document CHEMBL4602719, “Discovery of Potent, Selective, and Orally Bioavailable Inhibitors of USP7 with In Vivo Antitumor Activity” (J Med Chem, 2020).
# Assays:
# [1] = biological target: T1, Ubiquitin carboxyl-terminal hydrolase 1 (Homo sapiens, UniProt O94782); experiment: Inhibition of His6-tagged human USP1 expressed in insect Sf21 cells coexpressing untagged UAF1 assessed as cleavage of Ubiquitin-Rhodamine110-glycine to Ubiquitin and Rhodamine110-glycine using Ubiquitin-Rhodamine110-glycine as substrate by fluorescence based analysis
# T1 sequence (O94782 whole entry): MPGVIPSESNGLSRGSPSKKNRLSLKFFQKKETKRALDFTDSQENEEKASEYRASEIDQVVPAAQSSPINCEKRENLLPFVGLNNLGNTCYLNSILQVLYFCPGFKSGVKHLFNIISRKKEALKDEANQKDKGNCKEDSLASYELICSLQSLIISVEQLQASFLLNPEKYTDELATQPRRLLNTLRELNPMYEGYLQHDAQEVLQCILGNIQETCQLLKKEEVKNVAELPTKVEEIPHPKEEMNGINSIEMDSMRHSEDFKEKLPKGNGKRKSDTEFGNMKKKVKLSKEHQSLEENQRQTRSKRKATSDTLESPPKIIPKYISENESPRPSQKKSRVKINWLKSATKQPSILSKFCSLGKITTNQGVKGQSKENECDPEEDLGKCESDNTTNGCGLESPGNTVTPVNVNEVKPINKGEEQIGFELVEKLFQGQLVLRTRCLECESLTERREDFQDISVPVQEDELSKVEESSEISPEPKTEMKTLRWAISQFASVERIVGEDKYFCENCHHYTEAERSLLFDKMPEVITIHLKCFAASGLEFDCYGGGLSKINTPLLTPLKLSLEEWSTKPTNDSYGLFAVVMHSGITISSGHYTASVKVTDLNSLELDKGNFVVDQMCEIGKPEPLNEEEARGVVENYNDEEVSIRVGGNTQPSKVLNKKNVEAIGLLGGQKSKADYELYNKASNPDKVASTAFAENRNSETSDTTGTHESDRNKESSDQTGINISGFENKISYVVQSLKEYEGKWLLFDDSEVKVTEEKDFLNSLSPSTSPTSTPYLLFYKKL
# [2] = biological target: T2, Ubiquitin carboxyl-terminal hydrolase 47 (Homo sapiens, UniProt Q96K76); experiment: Inhibition of USP47 (unknown origin) by biochemical assay
# T2 sequence (Q96K76 whole entry): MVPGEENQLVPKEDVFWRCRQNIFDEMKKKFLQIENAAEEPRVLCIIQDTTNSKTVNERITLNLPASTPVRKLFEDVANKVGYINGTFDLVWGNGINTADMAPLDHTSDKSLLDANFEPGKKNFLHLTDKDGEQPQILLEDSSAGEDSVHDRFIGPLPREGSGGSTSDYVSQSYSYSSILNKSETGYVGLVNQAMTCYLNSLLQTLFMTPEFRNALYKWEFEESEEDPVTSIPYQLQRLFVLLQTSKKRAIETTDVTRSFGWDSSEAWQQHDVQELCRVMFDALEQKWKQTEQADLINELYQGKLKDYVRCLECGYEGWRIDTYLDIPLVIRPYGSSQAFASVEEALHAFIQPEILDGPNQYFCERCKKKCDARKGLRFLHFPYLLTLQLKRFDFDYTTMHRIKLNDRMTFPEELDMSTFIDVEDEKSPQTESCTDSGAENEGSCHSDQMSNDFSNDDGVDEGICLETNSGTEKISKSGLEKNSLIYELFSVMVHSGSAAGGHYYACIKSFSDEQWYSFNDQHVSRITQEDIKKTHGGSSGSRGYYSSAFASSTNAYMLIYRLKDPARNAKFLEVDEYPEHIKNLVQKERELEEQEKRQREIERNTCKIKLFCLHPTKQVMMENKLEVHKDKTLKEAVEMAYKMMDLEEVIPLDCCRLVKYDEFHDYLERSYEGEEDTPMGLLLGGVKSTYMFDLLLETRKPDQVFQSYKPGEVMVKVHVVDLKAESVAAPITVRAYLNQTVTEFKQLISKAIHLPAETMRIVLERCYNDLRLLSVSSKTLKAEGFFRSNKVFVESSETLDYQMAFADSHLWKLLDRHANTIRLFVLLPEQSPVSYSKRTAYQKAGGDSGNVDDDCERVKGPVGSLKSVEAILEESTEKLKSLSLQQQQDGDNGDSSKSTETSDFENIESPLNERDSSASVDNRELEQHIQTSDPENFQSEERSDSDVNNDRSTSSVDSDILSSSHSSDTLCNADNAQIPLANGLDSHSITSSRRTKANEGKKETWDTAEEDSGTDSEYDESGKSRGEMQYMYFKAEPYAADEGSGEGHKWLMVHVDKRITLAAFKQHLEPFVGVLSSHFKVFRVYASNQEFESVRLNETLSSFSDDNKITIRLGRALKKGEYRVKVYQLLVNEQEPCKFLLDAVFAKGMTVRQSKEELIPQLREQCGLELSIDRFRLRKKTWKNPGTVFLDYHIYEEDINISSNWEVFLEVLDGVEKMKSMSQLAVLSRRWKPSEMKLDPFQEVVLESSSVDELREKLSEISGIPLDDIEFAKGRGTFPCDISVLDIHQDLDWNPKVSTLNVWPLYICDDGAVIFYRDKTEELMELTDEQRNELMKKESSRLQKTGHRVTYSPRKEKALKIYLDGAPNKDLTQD
# [3] = biological target: Ubiquitin carboxyl-terminal hydrolase 7 (Homo sapiens, UniProt Q93009); experiment: Inhibition of USP7 in human RKO cells transfected with p53 luciferase reporter vector assessed as increase in p53-dependent luciferase activity measured after 18 hrs by BrightGlo luciferase assay; type: cell-based
# Ubiquitin carboxyl-terminal hydrolase 7, sequence (Q93009 whole entry): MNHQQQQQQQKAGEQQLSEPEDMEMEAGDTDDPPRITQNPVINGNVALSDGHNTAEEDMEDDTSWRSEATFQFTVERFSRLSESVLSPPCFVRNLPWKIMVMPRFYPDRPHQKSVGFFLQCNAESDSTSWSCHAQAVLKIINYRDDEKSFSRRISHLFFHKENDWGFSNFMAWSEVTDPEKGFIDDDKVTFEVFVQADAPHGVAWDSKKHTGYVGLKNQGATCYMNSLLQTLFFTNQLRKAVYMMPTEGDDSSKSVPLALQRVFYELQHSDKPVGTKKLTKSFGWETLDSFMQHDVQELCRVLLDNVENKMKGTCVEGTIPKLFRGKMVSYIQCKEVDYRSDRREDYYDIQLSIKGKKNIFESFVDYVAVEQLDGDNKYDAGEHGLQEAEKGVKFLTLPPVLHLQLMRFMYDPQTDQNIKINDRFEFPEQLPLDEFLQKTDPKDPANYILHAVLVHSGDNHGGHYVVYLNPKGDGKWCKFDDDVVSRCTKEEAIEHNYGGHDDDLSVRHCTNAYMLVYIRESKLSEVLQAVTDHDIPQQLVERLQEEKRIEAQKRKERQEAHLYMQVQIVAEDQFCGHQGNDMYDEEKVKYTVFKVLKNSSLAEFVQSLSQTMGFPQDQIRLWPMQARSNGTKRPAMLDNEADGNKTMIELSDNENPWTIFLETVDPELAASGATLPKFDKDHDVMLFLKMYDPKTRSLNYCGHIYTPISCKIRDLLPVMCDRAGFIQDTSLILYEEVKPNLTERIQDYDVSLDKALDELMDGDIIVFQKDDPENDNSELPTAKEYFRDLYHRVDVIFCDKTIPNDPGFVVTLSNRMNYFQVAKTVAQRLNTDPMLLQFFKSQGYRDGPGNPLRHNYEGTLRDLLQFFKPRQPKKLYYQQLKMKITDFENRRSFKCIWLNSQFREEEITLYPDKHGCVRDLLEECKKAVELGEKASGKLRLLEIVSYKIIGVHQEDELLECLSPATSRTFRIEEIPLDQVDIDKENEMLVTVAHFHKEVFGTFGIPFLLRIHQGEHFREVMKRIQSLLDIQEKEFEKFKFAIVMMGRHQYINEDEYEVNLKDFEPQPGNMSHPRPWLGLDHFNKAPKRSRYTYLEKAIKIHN
# [4] = biological target: Ubiquitin carboxyl-terminal hydrolase CYLD (Homo sapiens, UniProt Q9NQC7); experiment: Inhibition of human 6His-tagged CYLD expressed in baculovirus infected Sf21 insect cells assessed as cleavage of Ubiquitin-Rhodamine110-glycine to Ubiquitin and Rhodamine110-glycine using Ubiquitin-Rhodamine110-glycine as substrate by fluorescence based analysis
# Ubiquitin carboxyl-terminal hydrolase CYLD, sequence (Q9NQC7 whole entry): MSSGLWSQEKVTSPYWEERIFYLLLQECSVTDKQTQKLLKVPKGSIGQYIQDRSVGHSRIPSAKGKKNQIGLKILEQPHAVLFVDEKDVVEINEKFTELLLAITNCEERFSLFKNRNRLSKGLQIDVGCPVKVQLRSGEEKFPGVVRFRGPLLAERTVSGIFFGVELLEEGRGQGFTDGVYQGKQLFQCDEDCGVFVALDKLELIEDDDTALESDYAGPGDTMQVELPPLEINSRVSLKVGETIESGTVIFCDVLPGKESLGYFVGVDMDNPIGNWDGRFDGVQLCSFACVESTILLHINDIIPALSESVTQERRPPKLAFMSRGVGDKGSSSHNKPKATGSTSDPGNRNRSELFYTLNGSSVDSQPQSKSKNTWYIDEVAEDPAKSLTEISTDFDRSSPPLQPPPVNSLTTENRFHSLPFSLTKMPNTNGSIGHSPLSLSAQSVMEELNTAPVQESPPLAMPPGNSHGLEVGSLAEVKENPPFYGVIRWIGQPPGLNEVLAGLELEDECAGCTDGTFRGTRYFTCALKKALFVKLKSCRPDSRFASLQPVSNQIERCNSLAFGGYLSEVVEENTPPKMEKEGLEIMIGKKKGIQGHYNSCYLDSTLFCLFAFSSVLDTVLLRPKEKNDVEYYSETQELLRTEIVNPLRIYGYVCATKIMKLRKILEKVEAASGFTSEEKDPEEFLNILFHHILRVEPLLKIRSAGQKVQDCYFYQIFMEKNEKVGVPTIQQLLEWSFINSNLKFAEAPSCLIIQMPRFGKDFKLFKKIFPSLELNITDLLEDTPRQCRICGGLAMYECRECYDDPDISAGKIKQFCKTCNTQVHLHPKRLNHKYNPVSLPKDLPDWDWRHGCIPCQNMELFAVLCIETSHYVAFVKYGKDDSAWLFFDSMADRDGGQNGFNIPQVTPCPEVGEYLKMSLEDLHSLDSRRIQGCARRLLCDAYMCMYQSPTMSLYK
# [5] = biological target: Ubiquitin carboxyl-terminal hydrolase isozyme L5 (Homo sapiens, UniProt Q9Y5K5); experiment: Inhibition of human GST-tagged UCHL5 expressed in Escherichia coli assessed as cleavage of Ubiquitin-Rhodamine110-glycine to Ubiquitin and Rhodamine110-glycine using Ubiquitin-Rhodamine110-glycine as substrate by fluorescence based analysis
# Ubiquitin carboxyl-terminal hydrolase isozyme L5, sequence (Q9Y5K5 whole entry): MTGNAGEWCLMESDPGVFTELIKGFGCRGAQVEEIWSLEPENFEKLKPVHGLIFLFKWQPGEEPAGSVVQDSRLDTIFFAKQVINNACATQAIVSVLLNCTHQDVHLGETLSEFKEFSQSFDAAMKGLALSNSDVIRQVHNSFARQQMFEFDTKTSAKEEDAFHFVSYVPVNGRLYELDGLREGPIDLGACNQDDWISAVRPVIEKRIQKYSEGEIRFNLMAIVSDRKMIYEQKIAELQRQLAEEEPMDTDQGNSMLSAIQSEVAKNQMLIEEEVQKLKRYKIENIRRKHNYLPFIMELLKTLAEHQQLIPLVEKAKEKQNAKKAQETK
# [6] = biological target: Ubiquitin carboxyl-terminal hydrolase BAP1 (Homo sapiens, UniProt Q92560); experiment: Inhibition of human GST-tagged BAP1 expressed in Escherichia coli assessed as cleavage of Ubiquitin-Rhodamine110-glycine to Ubiquitin and Rhodamine110-glycine using Ubiquitin-Rhodamine110-glycine as substrate by fluorescence based analysis
# Ubiquitin carboxyl-terminal hydrolase BAP1, sequence (Q92560 whole entry, the tested form may be a part): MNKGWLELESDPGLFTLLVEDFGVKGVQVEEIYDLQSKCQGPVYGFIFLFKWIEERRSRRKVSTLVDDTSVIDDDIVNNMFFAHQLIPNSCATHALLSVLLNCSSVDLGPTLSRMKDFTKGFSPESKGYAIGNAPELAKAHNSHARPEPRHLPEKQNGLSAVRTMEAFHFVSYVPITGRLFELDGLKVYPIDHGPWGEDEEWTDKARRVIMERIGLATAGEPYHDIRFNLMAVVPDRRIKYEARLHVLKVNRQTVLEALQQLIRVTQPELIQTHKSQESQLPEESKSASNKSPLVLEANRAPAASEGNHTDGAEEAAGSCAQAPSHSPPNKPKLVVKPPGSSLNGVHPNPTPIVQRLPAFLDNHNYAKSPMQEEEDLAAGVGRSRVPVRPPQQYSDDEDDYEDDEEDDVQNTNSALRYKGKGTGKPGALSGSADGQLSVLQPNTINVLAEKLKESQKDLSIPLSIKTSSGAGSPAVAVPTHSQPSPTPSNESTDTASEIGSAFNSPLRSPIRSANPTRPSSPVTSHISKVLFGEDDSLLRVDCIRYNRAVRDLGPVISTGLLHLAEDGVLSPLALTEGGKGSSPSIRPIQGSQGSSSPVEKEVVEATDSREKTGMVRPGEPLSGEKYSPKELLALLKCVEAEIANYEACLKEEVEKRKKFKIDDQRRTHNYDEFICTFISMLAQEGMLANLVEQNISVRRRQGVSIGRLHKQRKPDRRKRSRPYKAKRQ
# [7] = biological target: OTU domain-containing protein 1 (Homo sapiens, UniProt Q5VV17); experiment: Inhibition of human 6His-tagged OTUD1 CD (270 to 481 residues) expressed in Escherichia coli assessed as cleavage of Ubiquitin-Rhodamine110-glycine to Ubiquitin and Rhodamine110-glycine using Ubiquitin-Rhodamine110-glycine as substrate by fluorescence based analysis
# OTU domain-containing protein 1, sequence (Q5VV17 whole entry, the tested form may be a part): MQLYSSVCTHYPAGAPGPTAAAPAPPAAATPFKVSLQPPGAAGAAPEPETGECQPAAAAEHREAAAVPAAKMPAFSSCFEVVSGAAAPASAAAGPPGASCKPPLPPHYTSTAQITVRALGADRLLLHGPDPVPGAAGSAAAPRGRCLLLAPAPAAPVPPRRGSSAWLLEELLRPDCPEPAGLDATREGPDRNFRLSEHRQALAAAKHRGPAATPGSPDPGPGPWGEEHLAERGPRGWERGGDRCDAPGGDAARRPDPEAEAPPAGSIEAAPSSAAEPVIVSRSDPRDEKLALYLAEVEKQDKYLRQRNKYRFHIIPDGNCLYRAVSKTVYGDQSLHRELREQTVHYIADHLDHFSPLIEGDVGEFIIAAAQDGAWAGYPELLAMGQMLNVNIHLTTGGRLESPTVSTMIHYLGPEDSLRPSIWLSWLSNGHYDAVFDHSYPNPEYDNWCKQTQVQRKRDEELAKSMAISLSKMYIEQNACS
# [8] = biological target: OTU domain-containing protein 3 (Homo sapiens, UniProt Q5T2D3); experiment: Inhibition of human GST-tagged OTUD3 expressed in Escherichia coli assessed as cleavage of Ubiquitin-Rhodamine110-glycine to Ubiquitin and Rhodamine110-glycine using Ubiquitin-Rhodamine110-glycine as substrate by fluorescence based analysis
# OTU domain-containing protein 3, sequence (Q5T2D3 whole entry, the tested form may be a part): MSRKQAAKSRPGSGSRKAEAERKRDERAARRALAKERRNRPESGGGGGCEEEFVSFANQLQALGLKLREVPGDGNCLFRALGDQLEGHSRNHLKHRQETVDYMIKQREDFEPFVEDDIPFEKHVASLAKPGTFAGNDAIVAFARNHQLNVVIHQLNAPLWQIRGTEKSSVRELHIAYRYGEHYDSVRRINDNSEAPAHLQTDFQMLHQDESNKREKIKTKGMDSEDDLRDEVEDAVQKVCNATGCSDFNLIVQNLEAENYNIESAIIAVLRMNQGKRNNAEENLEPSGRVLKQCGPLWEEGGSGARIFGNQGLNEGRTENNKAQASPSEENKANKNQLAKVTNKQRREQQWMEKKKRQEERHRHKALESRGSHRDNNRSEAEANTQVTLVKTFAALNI
smiles,measurement,setting,value
Cc1cc(Cl)cc(-c2ccnc3cc(CN4C(=O)C5C(C4=O)C5(C)C)sc23)c1O[C@@H]1CCNC[C@@H]1C (stereo partly drawn),IC50,[1],> 10 µM
same,IC50,[2],> 10 µM
same,EC50,[3],0.065 µM
same,IC50,[4],> 10 µM
same,IC50,[5],> 10 µM
same,IC50,[6],> 10 µM
same,IC50,[7],> 10 µM
same,IC50,[8],> 10 µM
